The supplement of paper PMC13380429
Counter-ions that a name gives are not always drawn. ± gives the standard deviation of the averaged measurements.

Columns and labels:
Conditions in all cases: 72 h
HepG2 [1] = assay: drug sensitivity score (DSS) for viability; higher = more toxic; extreme values may be limits of the assay
U2OS [2] = assay: as above
Caco-2 [3] = assay: as above
Vero E6 [4] = assay: as above
HepG2 [5] = assay: cell viability relative to DMSO; higher = less toxic
U2OS [6] = assay: as above
Caco-2 [7] = assay: as above
Vero E6 [8] = assay: as above
HepG2 [9] = assay: relative viability EC50 (midpoint between 100% and the lowest measured viability); higher = less toxic
U2OS [10] = assay: as above
Caco-2 [11] = assay: as above
Vero E6 [12] = assay: as above
Calu-3 [13] = assay: drug sensitivity score (DSS) for viability; higher = more toxic; extreme values may be limits of the assay
Calu-3 [14] = assay: cell viability relative to DMSO; higher = less toxic
Calu-3 [15] = assay: relative viability EC50 (midpoint between 100% and the lowest measured viability); higher = less toxic

SMILES | drug sensitivity score (HepG2 [1]) | drug sensitivity score (U2OS [2]) | drug sensitivity score (Caco-2 [3]) | drug sensitivity score (Vero E6 [4]) | cell viability (HepG2 [5]; 1 nM) [%] | cell viability (HepG2 [5]; 10 nM) [%] | cell viability (HepG2 [5]; 100 nM) [%] | cell viability (HepG2 [5]; 1000 nM) [%] | cell viability (HepG2 [5]; 10000 nM) [%] | cell viability (U2OS [6]; 1 nM) [%] | cell viability (U2OS [6]; 10 nM) [%] | cell viability (U2OS [6]; 100 nM) [%] | cell viability (U2OS [6]; 1000 nM) [%] | cell viability (U2OS [6]; 10000 nM) [%] | cell viability (Caco-2 [7]; 1 nM) [%] | cell viability (Caco-2 [7]; 10 nM) [%] | cell viability (Caco-2 [7]; 100 nM) [%] | cell viability (Caco-2 [7]; 1000 nM) [%] | cell viability (Caco-2 [7]; 10000 nM) [%] | cell viability (Vero E6 [8]; 1 nM) [%] | cell viability (Vero E6 [8]; 10 nM) [%] | cell viability (Vero E6 [8]; 100 nM) [%] | cell viability (Vero E6 [8]; 1000 nM) [%] | cell viability (Vero E6 [8]; 10000 nM) [%] | relative viability EC50 (HepG2 [9]) [µM] | relative viability EC50 (U2OS [10]) [µM] | relative viability EC50 (Caco-2 [11]) [µM] | relative viability EC50 (Vero E6 [12]) [µM] | drug sensitivity score (Calu-3 [13]) | cell viability (Calu-3 [14]; 1 nM) [%] | cell viability (Calu-3 [14]; 10 nM) [%] | cell viability (Calu-3 [14]; 100 nM) [%] | cell viability (Calu-3 [14]; 1000 nM) [%] | cell viability (Calu-3 [14]; 10000 nM) [%] | relative viability EC50 (Calu-3 [15]) [µM]
CN(C)/N=N/c1ccc(C(=O)O)cc1 [CB-10-277] | 0 | 0 | 0 | 0 | 102 | 95.9 | 113 | 102 | 105 | 96.6 | 104 | 98.1 | 99.9 | 104 | 95.8 | 97.3 | 101 | 96.6 | 102 | 98.7 | 98.3 | 97.6 | 97.2 | 106 | > 10 | > 10 | > 10 | > 10 |  |  |  |  |  |  | 
CC(C)c1ccc(-c2cc(=O)c3ccccc3o2)cc1 [MN-64] | 2.5 | 0.2 | 1.9 | 2.2 | 91.9 | 97.6 | 94.8 | 94.8 | 65.1 | 102 | 99.4 | 102 | 95.2 | 88.2 | 105 | 98.8 | 105 | 84.9 | 81.1 | 96.6 | 94.2 | 98.9 | 98 | 61.5 |  | > 10 | > 10 |  | 1.7 | 113 | 105 | 97.2 | 96.1 | 72.7 | 
N#Cc1ccc(Oc2ccc3c(c2)COB3O)cc1 [crisaborole] | 0 |  | 0 | 0 | 106 | 105 | 112 | 104 | 95.8 |  |  |  |  |  | 104 | 104 | 107 | 98.8 | 101 | 103 | 105 | 101 | 102 | 98.1 | > 10 |  | > 10 | > 10 | 0 | 89.8 | 94.6 | 96.7 | 94.3 | 108 | > 10
CN[C@H](CC(C)C)C(=O)N[C@H]1C(=O)N[C@@H](CC(N)=O)C(=O)N[C@H]2C(=O)N[C@H]3C(=O)N[C@H](C(=O)N[C@H](C(=O)O)c4cc(O)cc(O)c4-c4cc3ccc4O)[C@H](O)c3ccc(c(Cl)c3)Oc3cc2cc(c3O[C@@H]2O[C@H](CO)[C@@H](O)[C@H](O)[C@H]2O[C@H]2C[C@](C)(N)[C@H](O)[C@H](C)O2)Oc2ccc(cc2Cl)[C@H]1O [VANCOMYCIN HYDROCHLORIDE] | 0 | 0 | 0 | 0 | 93.7 | 105 | 105 | 96.4 | 125 | 99.7 | 95.6 | 97.4 | 101 | 106 | 80.7 | 92.2 | 94.9 | 99.8 | 100 | 98.1 | 99.5 | 98.3 | 98.5 | 104 | > 10 | > 10 | > 10 | > 10 |  |  |  |  |  |  | 
O=C(NCc1cccc(O)c1)Nc1nc(-c2ccncc2)cs1 [RKI-1447] | 2.05 ± 1.1 | 3.6 ± 0.57 | 0.65 ± 0.49 | 5.05 ± 1.8 | 94.2 ± 6 | 108 ± 9.9 | 101 ± 3.4 | 91.95 ± 0.49 | 73.1 ± 8.9 | 98.8 ± 2.4 | 99.3 ± 2.8 | 101 ± 4.9 | 87.5 ± 3.1 | 61.8 ± 2.3 | 97.8 ± 5.2 | 97 ± 0.14 | 94.8 ± 6.2 | 96.6 ± 1.1 | 81.3 ± 0.14 | 99.5 ± 3.7 | 100 ± 4.4 | 91.1 ± 13 | 76.1 ± 0.42 | 73.4 ± 0.28 |  |  | > 10 |  | 0 | 97.9 | 128 | 146 | 148 | 144 | > 10
CCOC(=O)CC(=O)N1CCSC1COc1ccccc1OC (stereo not given) [moguisteine] | 0 |  | 0 | 0 | 93.7 | 97 | 99.2 | 112 | 104 |  |  |  |  |  | 98.6 | 98.3 | 96.3 | 105 | 98.4 | 99.7 | 101 | 100 | 105 | 105 | > 10 |  | > 10 | > 10 | 0 | 99.2 | 103 | 99.3 | 97.6 | 92.8 | > 10
O=c1cc(N2CCN(c3cccc(C(F)(F)F)c3)CC2)[nH]c(=O)n1C1CCCCC1 [ML179] | 2.7 | 0 | 0 | 0 | 100 | 105 | 94.4 | 82.6 | 77.7 | 101 | 97.5 | 100 | 97.9 | 101 | 95.5 | 96.8 | 97.2 | 98 | 96.5 | 102 | 101 | 98.4 | 100 | 99.7 | > 10 | > 10 | > 10 | > 10 |  |  |  |  |  |  | 
Cc1cn(-c2cc(NC(=O)c3ccc(C)c(Nc4nccc(-c5cccnc5)n4)c3)cc(C(F)(F)F)c2)cn1 [nilotinib] |  |  | 0 | 0 |  |  |  |  |  |  |  |  |  |  | 101 | 114 | 97.9 | 106 | 88.1 | 107 | 98.2 | 103 | 103 | 106 |  |  | > 10 | > 10 | 0 | 98.8 | 106 | 111 | 90.1 | 100 | > 10
O=C1NC(=O)/C(=C/c2cccc(C(F)(F)F)c2)S1 [SMI-4a] | 0 |  | 0 | 0 | 96.4 | 112 | 91 | 97.4 | 105 |  |  |  |  |  | 97.7 | 101 | 105 | 104 | 92.7 | 104 | 101 | 99.1 | 101 | 95.9 | > 10 |  | > 10 | > 10 | 0 | 101 | 98.1 | 95.4 | 100 | 97.4 | > 10
O=S(=O)(O)CCS [mesna] |  |  | 0 | 0 |  |  |  |  |  |  |  |  |  |  | 114 | 102 | 104 | 97.2 | 104 | 103 | 102 | 107 | 98.5 | 101 |  |  | > 10 | > 10 | 0 | 98.4 | 91.8 | 104 | 95.9 | 103 | > 10
NCCCNCCSP(=O)(O)O [amifostine] | 0 |  | 0 | 0 | 103 | 100 | 96.6 | 93 | 98.2 |  |  |  |  |  | 88.8 | 100 | 86.4 | 100 | 92.7 | 104 | 108 | 106 | 97.3 | 102 | > 10 |  | > 10 | > 10 | 0 | 95.8 | 101 | 101 | 100 | 98 | > 10
COc1ccc2[nH]cc(CCNC(C)=O)c2c1 [melatonin] |  |  | 0 |  |  |  |  |  |  |  |  |  |  |  | 107 | 88.8 | 101 | 102 | 99.5 |  |  |  |  |  |  |  | > 10 |  | 0 | 101 | 105 | 96.8 | 109 | 105 | > 10
COc1cc(NS(=O)(=O)c2ccc(N)cc2)nc(OC)n1 [sulphadimethoxine] | 0 |  | 0 | 0 | 106 | 108 | 122 | 98.9 | 105 |  |  |  |  |  | 109 | 99.9 | 103 | 100 | 99.9 | 100 | 97.8 | 98.8 | 103 | 97.5 | > 10 |  | > 10 | > 10 | 0 | 103 | 90.3 | 91.8 | 98.9 | 94 | > 10
CC(C)=CCC/C(C)=C/CC/C(C)=C/C=C/C(C)=C/C(=O)O [peretinoin] | 0 |  | 0 | 0 | 101 | 94.3 | 90.9 | 103 | 104 |  |  |  |  |  | 104 | 98.9 | 101 | 97.9 | 102 | 101 | 96.1 | 106 | 93.3 | 104 | > 10 |  | > 10 | > 10 | 0 | 107 | 104 | 105 | 114 | 97.6 | > 10
S=P(N1CC1)(N1CC1)N1CC1 [thiotepa] | 0 |  | 0 | 0 | 104 | 96.6 | 102 | 100 | 107 |  |  |  |  |  | 94.7 | 101 | 94.8 | 98.5 | 91.1 | 108 | 98.9 | 106 | 97.3 | 102 | > 10 |  | > 10 | > 10 | 0 | 91.8 | 95.7 | 97.5 | 90.2 | 89.5 | > 10
